Test results from patent US20160212997A1, “AGRICULTURAL CHEMICALS” (REDAG CROP PROTECTION LTD, priority 2013, published 2016).
Read-outs that look alike come from different tables or passages of the source.

How the values were obtained:
aphids, Myzus persicae = test: Potter tower spray on aphids, knockdown and mortality; format: in vivo; settings: Myzus persicae, read-out: Average of % corrected affected; for pest or weed control at 0.00625 % strength / pest or weed control at 0.0125 % strength / pest or weed control at 0.025 % strength / pest or weed control at 0.05 % strength / pest or weed control at 0.1 % strength / pest or weed control at 0.003125 % strength: Aphids; for pest or weed control at 0.00625 % strength: 0.00625 % w/v; for pest or weed control at 0.0125 % strength: 0.0125 % w/v; for pest or weed control at 0.025 % strength: 0.025 % w/v; for pest or weed control at 0.05 % strength: 0.05 % w/v; for pest or weed control at 0.1 % strength: 0.1 % w/v; for pest or weed control at 0.003125 % strength: 0.003125 % w/v
Text: The compounds were screened for insecticidal efficacy against aphids, Myzus persicae, Cabbage moth, Mamestra brassicae, diamond black moths, Plutella xylostella, red spider mites, Tetranychus urticae, whitefly, Trialeurodes vaporariorum, in terms of knockdown and mortality.
(§1) Myzus persicae, Cabbage moth, Mamestra brassicae, diamond back moths, Plutella xylostella, red spider mites, Tetranychus urticae, whitefly, Trialeurodes vaporariorum, were obtained from specified laboratory cultures. Mixed sex and age aphids and mites, moth larvae and whitefly scale infested leaves were used in the experiments. Environmental conditions were closely monitored and recorded and were within the optimal range of the target species.
(§2) The compounds were screened at a range of five concentrations, diluted in DMSO. Some of the compounds were screened against aphids, whitefly and red spider mites and other compounds were screened against cabbage moth, and diamond black moths. A carrier only and an untreated control will also be conducted. Treatments were applied directly onto the insects within Petri dishes, using a potter tower.
(§3) Twenty mites and ten aphids, scales and moth larvae were placed within a Petri dish, lined with a suitable leaf disc on a damp cotton wool pad. Scales were already on leaves. The Petri dishes were then sprayed using a potter tower. The number of knocked down and anthropods were assessed at 24 and 48 hours post treatment. Five replicates were be performed for each treatment, for each species.
(§4) For Tables 2, 4, 5 and 6, the compounds were diluted in DMSO containing 1% v/v Tween 20™. For Tables 2, 4, 5 and 6, the caterpillars were a mixture of Mamestra brassicae and Lacanobia oleracea.

[1] = system: caterpillars, a mixture of Mamestra brassicae and Lacanobia oleracea; test: Potter tower spray on caterpillars, knockdown and mortality; format: in vivo; settings: read-out: Average of % corrected affected; for pest or weed control at 0.00625 % strength / pest or weed control at 0.0125 % strength / pest or weed control at 0.025 % strength / pest or weed control at 0.05 % strength / pest or weed control at 0.1 % strength / pest or weed control at 0.003125 % strength: Caterpillars; for pest or weed control at 0.00625 % strength: 0.00625 % w/v; for pest or weed control at 0.0125 % strength: 0.0125 % w/v; for pest or weed control at 0.025 % strength: 0.025 % w/v; for pest or weed control at 0.05 % strength: 0.05 % w/v; for pest or weed control at 0.1 % strength: 0.1 % w/v; for pest or weed control at 0.003125 % strength: 0.003125 % w/v
Text: as §1, §2, §3, §4

[2] = 24 h, 24 hours post application
[3] = 48 h, 48 hours post application

| Structure (SMILES) | pest or weed control at 0.00625 % strength (aphids, Myzus persicae; [2]) | pest or weed control at 0.0125 % strength (aphids, Myzus persicae; [2]) | pest or weed control at 0.025 % strength (aphids, Myzus persicae; [2]) | pest or weed control at 0.05 % strength (aphids, Myzus persicae; [2]) | pest or weed control at 0.1 % strength (aphids, Myzus persicae; [2]) | pest or weed control at 0.00625 % strength (aphids, Myzus persicae; [3]) | pest or weed control at 0.0125 % strength (aphids, Myzus persicae; [3]) | pest or weed control at 0.025 % strength (aphids, Myzus persicae; [3]) | pest or weed control at 0.05 % strength (aphids, Myzus persicae; [3]) | pest or weed control at 0.1 % strength (aphids, Myzus persicae; [3]) | pest or weed control at 0.00625 % strength [1, 2] | pest or weed control at 0.0125 % strength [1, 2] | pest or weed control at 0.025 % strength [1, 2] | pest or weed control at 0.05 % strength [1, 2] | pest or weed control at 0.1 % strength [1, 2] | pest or weed control at 0.00625 % strength [1, 3] | pest or weed control at 0.0125 % strength [1, 3] | pest or weed control at 0.025 % strength [1, 3] | pest or weed control at 0.05 % strength [1, 3] | pest or weed control at 0.1 % strength [1, 3] | other results |
| --- | --- | --- | --- | --- | --- | --- | --- | --- | --- | --- | --- | --- | --- | --- | --- | --- | --- | --- | --- | --- | --- |
| COC(CN(Cc1ccc(Cl)nc1)C1=CC(=O)OC1)OC [Compound 5, 3-[(6-Chloro-3-pyridyl)methyl-(2,2-dimethoxyethyl)amino]-2H-furan-5-one] | 1 to 19% | 1 to 19% | 1 to 19% | 20 to 39% | 1 to 19% | 1 to 19% | 1 to 19% | 1 to 19% | 20 to 39% | 1 to 19% | 1 to 19% | 1 to 19% | 1 to 19% | 1 to 19% | 1 to 19% | 1 to 19% | 1 to 19% | 1 to 19% | 1 to 19% | 20 to 39% |  |
| Cc1cc(C2=NOC(c3cc(Cl)cc(Cl)c3)(C(F)(F)F)C2)ccc1SCC(=O)NCC(F)(F)F (stereo not shown) [Compound 15, 2-[4-[5-(3,5-dichlorophenyl)-5-(trifluoromethyl)-4H-isoxazol-3-yl]-2-methyl-phenyl]sulfanyl-N-(2,2,2-trifluoroethyl)acetamide, reference compound] |  |  |  |  |  |  |  |  |  |  |  |  |  |  |  |  |  |  |  |  | pest or weed control at 0.000125 % strength (aphids, Myzus persicae; 24 h): 1 to 19%; pest or weed control at 0.00025 % strength (aphids, Myzus persicae; 24 h): 1 to 19%; pest or weed control at 0.0005 % strength (aphids, Myzus persicae; 24 h): 1 to 19%; pest or weed control at 0.001 % strength (aphids, Myzus persicae; 24 h): 1 to 19%; pest or weed control at 0.002 % strength (aphids, Myzus persicae; 24 h): 0%; pest or weed control at 0.000125 % strength (aphids, Myzus persicae; 48 h): 1 to 19%; pest or weed control at 0.00025 % strength (aphids, Myzus persicae; 48 h): 1 to 19%; pest or weed control at 0.0005 % strength (aphids, Myzus persicae; 48 h): 1 to 19%; pest or weed control at 0.001 % strength (aphids, Myzus persicae; 48 h): 20 to 39%; pest or weed control at 0.002 % strength (aphids, Myzus persicae; 48 h): 20 to 39%; pest or weed control at 0.000125 % strength ([1]; 24 h): 1 to 19%; pest or weed control at 0.00025 % strength ([1]; 24 h): 1 to 19%; pest or weed control at 0.0005 % strength ([1]; 24 h): 1 to 19%; pest or weed control at 0.001 % strength ([1]; 24 h): 1 to 19%; pest or weed control at 0.002 % strength ([1]; 24 h): 1 to 19%; pest or weed control at 0.000125 % strength ([1]; 48 h): 0%; pest or weed control at 0.00025 % strength ([1]; 48 h): 1 to 19%; pest or weed control at 0.0005 % strength ([1]; 48 h): 1 to 19%; pest or weed control at 0.001 % strength ([1]; 48 h): 1 to 19%; pest or weed control at 0.002 % strength ([1]; 48 h): 1 to 19% |
| N#CCN(Cc1ccc(Cl)nc1)C1=CC(=O)OC1 [Compound 7, 2-[(6-Chloro-3-pyridyl)methyl-(5-oxo-2H-furan-3-yl)amino]acetonitrile] | 1 to 19% | 20 to 39% | 20 to 39% | 40 to 59% | 1 to 19% | 40 to 59% | 40 to 59% | 40 to 59% | 40 to 59% | 1 to 19% | 1 to 19% | 1 to 19% | 1 to 19% | 0% | 1 to 19% | 1 to 19% | 0% | 1 to 19% | 0% | 1 to 19% |  |
| O=C(Nc1ccc(-c2cccnc2)oc1=O)C1CC1 [Compound 25, N-[2-Oxo-6-(3-pyridyl)pyran-3-yl]cyclopropanecarboxamide, reference compound] | 20 to 39% | 20 to 39% | 40 to 59% | 1 to 19% |  | 20 to 39% | 20 to 39% | 60 to 79% | 40 to 59% |  | 1 to 19% | 1 to 19% | 1 to 19% | 1 to 19% |  | 1 to 19% | 1 to 19% | 20 to 39% | 1 to 19% |  | pest or weed control at 0.003125 % strength (aphids, Myzus persicae; [2]): 1 to 19%; pest or weed control at 0.003125 % strength (aphids, Myzus persicae; [3]): 1 to 19%; pest or weed control at 0.003125 % strength [1, 2]: 0%; pest or weed control at 0.003125 % strength [1, 3]: 1 to 19% |
| O=C(CSc1ccc(C2=NOC(c3cc(Cl)cc(Cl)c3)(C(F)(F)F)C2)s1)NCC(F)(F)F (stereo not shown) [Compound 19, 2-[[5-[5-(3,5-dichlorophenyl)-5-(trifluoromethyl)-4H-isoxazol-3-yl]-2-thienyl]sulfanyl]-N-(2,2,2-trifluoroethyl)acetamide] |  |  |  |  |  |  |  |  |  |  |  |  |  |  |  |  |  |  |  |  | pest or weed control at 0.000125 % strength (aphids, Myzus persicae; 24 h): 20 to 39%; pest or weed control at 0.00025 % strength (aphids, Myzus persicae; 24 h): 1 to 19%; pest or weed control at 0.0005 % strength (aphids, Myzus persicae; 24 h): 1 to 19%; pest or weed control at 0.001 % strength (aphids, Myzus persicae; 24 h): 20 to 39%; pest or weed control at 0.002 % strength (aphids, Myzus persicae; 24 h): 1 to 19%; pest or weed control at 0.000125 % strength (aphids, Myzus persicae; 48 h): 40 to 59%; pest or weed control at 0.00025 % strength (aphids, Myzus persicae; 48 h): 20 to 39%; pest or weed control at 0.0005 % strength (aphids, Myzus persicae; 48 h): 20 to 39%; pest or weed control at 0.001 % strength (aphids, Myzus persicae; 48 h): 40 to 59%; pest or weed control at 0.002 % strength (aphids, Myzus persicae; 48 h): 1 to 19%; pest or weed control at 0.000125 % strength ([1]; 24 h): 0%; pest or weed control at 0.00025 % strength ([1]; 24 h): 0%; pest or weed control at 0.0005 % strength ([1]; 24 h): 1 to 19%; pest or weed control at 0.001 % strength ([1]; 24 h): 1 to 19%; pest or weed control at 0.002 % strength ([1]; 24 h): 1 to 19%; pest or weed control at 0.000125 % strength ([1]; 48 h): 1 to 19%; pest or weed control at 0.00025 % strength ([1]; 48 h): 1 to 19%; pest or weed control at 0.0005 % strength ([1]; 48 h): 1 to 19%; pest or weed control at 0.001 % strength ([1]; 48 h): 1 to 19%; pest or weed control at 0.002 % strength ([1]; 48 h): 1 to 19% |
